Assay results reported in ChEMBL document CHEMBL3992544, “Novel 6-methoxycarbonyl indolinones bearing a pyrrole Mannich base moiety as angiokinase inhibitors” (Bioorg Med Chem, 2017).

What was measured:
[1] = molecular target: Platelet-derived growth factor receptor beta (Homo sapiens, UniProt P09619); assay: Inhibition of human N-terminal GST-tagged PDGFRbeta cytoplasmic domain (557 to 1106 residues) expressed in baculovirus expression system preincubated for 10 mins followed by FAM-labeled peptide substrate addition measured after 1 hr by mobility shift assay
Platelet-derived growth factor receptor beta, sequence (P09619 whole entry, the tested form may be a part): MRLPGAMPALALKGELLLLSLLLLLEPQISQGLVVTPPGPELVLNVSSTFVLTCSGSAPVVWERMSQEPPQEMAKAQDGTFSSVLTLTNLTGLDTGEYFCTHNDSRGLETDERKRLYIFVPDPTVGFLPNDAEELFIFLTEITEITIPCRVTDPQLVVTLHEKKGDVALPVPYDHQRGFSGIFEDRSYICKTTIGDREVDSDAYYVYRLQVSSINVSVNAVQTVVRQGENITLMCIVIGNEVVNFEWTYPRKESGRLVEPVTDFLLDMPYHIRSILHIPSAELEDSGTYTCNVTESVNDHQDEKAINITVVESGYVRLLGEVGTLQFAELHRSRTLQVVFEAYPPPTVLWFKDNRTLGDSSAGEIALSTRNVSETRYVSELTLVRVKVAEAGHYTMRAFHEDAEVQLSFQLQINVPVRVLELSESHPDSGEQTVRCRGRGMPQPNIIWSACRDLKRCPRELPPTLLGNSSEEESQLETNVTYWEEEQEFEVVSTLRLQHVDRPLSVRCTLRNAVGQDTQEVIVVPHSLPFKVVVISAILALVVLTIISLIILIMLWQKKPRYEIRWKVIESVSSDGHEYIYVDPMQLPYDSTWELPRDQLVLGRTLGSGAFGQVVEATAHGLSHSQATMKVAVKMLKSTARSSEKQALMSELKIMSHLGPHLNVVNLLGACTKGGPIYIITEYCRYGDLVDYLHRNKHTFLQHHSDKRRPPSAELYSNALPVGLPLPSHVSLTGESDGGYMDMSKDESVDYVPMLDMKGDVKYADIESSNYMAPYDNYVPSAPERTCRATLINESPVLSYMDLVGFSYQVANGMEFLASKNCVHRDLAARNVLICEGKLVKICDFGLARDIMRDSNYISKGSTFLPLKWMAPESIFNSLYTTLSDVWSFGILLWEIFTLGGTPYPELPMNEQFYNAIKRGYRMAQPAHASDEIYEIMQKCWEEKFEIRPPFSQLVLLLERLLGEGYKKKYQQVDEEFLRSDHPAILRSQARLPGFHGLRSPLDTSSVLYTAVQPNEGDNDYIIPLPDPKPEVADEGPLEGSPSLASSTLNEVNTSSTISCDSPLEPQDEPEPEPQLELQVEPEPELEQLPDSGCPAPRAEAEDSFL

[2] = molecular target: Vascular endothelial growth factor receptor 1 (Homo sapiens, UniProt P17948); assay: Inhibition of recombinant human GST-tagged VEGFR1 cytoplasmic domain (781 to 1338 residues) expressed in baculovirus expression system preincubated for 10 mins followed by FAM-labeled peptide substrate addition measured after 1 hr by mobility shift assay
Vascular endothelial growth factor receptor 1, sequence (P17948 whole entry, the tested form may be a part): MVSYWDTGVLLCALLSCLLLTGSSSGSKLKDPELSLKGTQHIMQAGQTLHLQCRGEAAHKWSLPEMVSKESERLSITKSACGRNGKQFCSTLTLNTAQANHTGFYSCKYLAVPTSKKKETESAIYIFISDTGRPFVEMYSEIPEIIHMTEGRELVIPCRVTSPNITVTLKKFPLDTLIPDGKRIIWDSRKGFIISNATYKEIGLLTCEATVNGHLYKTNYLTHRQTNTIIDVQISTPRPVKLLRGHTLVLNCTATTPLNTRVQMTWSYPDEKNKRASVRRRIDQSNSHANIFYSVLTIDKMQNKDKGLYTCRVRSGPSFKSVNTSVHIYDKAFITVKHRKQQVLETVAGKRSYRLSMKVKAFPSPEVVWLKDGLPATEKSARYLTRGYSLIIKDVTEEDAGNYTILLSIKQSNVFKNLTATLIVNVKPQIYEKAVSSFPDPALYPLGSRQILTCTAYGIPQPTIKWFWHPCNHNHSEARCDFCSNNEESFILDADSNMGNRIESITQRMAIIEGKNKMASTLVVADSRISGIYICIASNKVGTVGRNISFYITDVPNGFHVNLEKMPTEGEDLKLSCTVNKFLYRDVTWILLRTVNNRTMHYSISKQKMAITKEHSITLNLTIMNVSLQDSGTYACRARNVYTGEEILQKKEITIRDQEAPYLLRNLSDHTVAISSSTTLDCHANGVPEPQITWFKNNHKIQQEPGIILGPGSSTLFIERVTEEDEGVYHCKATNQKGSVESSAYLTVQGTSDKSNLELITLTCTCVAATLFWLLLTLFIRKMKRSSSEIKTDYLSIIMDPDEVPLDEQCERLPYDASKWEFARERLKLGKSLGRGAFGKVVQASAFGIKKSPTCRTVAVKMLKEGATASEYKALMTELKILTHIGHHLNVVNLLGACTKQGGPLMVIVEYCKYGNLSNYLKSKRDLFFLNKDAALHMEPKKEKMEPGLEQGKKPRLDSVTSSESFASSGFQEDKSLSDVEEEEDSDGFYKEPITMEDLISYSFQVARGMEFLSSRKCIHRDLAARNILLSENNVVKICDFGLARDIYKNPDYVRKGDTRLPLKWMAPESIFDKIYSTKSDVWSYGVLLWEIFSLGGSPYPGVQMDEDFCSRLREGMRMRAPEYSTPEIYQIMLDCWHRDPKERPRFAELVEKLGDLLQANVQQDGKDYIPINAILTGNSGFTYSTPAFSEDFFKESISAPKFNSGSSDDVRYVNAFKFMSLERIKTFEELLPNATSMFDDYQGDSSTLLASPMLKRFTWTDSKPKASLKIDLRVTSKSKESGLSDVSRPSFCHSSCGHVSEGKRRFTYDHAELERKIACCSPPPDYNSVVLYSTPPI

[3] = molecular target: Fibroblast growth factor receptor 1 (Homo sapiens, UniProt P11362); assay: Inhibition of recombinant human GST-tagged FGFR1 cytoplasmic domain (398 to 822 residues) expressed in baculovirus expression system preincubated for 10 mins followed by FAM-labeled peptide substrate addition measured after 1 hr by mobility shift assay
Fibroblast growth factor receptor 1, sequence (P11362 whole entry, the tested form may be a part): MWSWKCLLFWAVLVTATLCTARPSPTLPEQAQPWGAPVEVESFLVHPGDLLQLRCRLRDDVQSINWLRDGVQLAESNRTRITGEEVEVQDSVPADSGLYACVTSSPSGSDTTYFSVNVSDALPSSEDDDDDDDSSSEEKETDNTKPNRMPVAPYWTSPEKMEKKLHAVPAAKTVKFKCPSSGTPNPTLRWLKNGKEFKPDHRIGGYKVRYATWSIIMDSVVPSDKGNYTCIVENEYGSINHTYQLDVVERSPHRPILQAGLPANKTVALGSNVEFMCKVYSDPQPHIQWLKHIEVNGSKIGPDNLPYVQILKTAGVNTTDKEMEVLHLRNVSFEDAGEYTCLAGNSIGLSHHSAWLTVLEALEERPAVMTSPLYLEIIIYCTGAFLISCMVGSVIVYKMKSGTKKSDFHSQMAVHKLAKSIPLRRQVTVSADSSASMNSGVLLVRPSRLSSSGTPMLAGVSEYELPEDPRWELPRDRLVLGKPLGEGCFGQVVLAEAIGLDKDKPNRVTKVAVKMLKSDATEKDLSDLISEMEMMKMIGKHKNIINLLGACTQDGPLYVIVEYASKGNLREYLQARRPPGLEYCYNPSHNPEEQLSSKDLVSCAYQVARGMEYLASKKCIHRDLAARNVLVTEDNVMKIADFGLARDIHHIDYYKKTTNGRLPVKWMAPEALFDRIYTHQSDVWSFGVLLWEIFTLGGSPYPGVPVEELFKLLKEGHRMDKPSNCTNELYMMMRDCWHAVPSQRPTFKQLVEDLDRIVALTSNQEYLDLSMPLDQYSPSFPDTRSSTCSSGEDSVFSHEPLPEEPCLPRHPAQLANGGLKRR

HT-29 [4] = assay: Antiproliferative activity against human HT-29 cells after 72 hrs by MTT assay; details: HT-29, 72 h
HeLa = assay: Antiproliferative activity against human HeLa cells after 72 hrs by MTT assay
HT-29 [5] = assay: Induction of apoptosis in human HT-29 cells after 48 hrs by acridine orange/ethidium bromide staining based confocal laser scanning microscopic method; format: functional, cell-based
SK-OV-3 = assay: Antiproliferative activity against human SKOV3 cells after 72 hrs by MTT assay; details: SK-OV-3, 72 h

| Compound | IC50 [1] [nM] | IC50 (HT-29 [4]) [nM] | IC50 (HeLa) [nM] | IC50 (SK-OV-3) [nM] | further results |
| --- | --- | --- | --- | --- | --- |
| COC(=O)c1ccc2c(c1)NC(=O)/C2=C(\Nc1ccc(-n2cccc2CN2CCNCC2)cc1)c1ccccc1 | 65.2 | – | – | – | – |
| CCN(CC)Cc1cccn1-c1ccc(N/C(=C2\C(=O)Nc3cc(C(=O)OC)ccc32)c2ccccc2)cc1 | 31.4 | – | – | – | – |
| COC(=O)c1ccc2c(c1)NC(=O)/C2=C(\Nc1ccc(-n2cccc2CN(C)C)cc1)c1ccccc1 | 14.3 | 980 | 53200 | 5220 | IC50 [2]: 99.2 nM; IC50 [3]: > 500 nM; Activity (HT-29 [5]): Dose-dependent effect |
| COC(=O)c1ccc2c(c1)NC(=O)/C2=C(\Nc1ccc(-n2cccc2CN2CCN(C)CC2)cc1)c1ccccc1 | 83.2 | 3120 | 30400 | 25900 | – |
| COC(=O)c1ccc2c(c1)NC(=O)/C2=C(\Nc1ccc(-n2cccc2CN2CCCC2)cc1)c1ccccc1 | 27.1 | – | – | – | – |
| COC(=O)c1ccc2c(c1)NC(=O)/C2=C(\Nc1ccc(Cn2cccc2CN2CCN(C)CC2)cc1)c1ccccc1 | 67.8 | – | – | – | – |
| COC(=O)c1ccc2c(c1)NC(=O)/C2=C(\Nc1ccc(N(C)C(=O)CN2CCN(C)CC2)cc1)c1ccccc1 [NINTEDANIB] | – | 4900 | 51600 | 28800 | – |
| COC(=O)c1ccc2c(c1)NC(=O)/C2=C(\Nc1ccc(-n2cccc2CN2CCCCC2)cc1)c1ccccc1 | 45.5 | – | – | – | – |
| COC(=O)c1ccc2c(c1)NC(=O)/C2=C(\Nc1ccc(Cn2cccc2CN(C)C)cc1)c1ccccc1 | 29.8 | – | – | – | – |
